In paper PMC9418147, “Identification and structure-based drug design of cell-active inhibitors of interleukin 17A at a novel C-terminal site” (Scientific Reports, 2022):
Values joined by “and” are separate entries in the source; they are usually repeats but may differ in a detail not shown here. Equal entries are not always repeated. “Also recorded” adds a separate entry of the source. Where two headings read alike, the source gives them in different places. Values belong to the compound of their own block, whether it stands above or below them.

Legend:
IL17A [1] = molecular target: T1, IL17A (Homo sapiens, UniProt Q16552, C129S); assay: 2D NMR titration of compound binding to IL17A
T1 construct: For crystallography, NMR and early SPR studies, IL17A (34–155)C129S; Trx-6His (N, cleaved yes); made in house; host or cells: Escherichia coli Shuffle T7 express (NEB)
T1 sequence (Q16552 34-155 C129S): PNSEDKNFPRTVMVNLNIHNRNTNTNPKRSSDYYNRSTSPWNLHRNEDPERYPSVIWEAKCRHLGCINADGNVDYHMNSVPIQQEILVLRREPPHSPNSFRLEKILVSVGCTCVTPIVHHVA
Experimental: NMR spectra were acquired on either a Bruker 500 MHz AVANCE III spectrometer or a Bruker 600 MHz AVANCE III HD spectrometer, both with cryoprobes, on 60 µM protein samples in 20 mM deuterated TRIS buffer, pH 8.0, with 150 mM NaCl. For fragment screening, fragments were added from a concentrated DMSO stock to a concentration of 1 mM in the NMR tube. As described above, fragments were initially added as mixtures of 12 and those mixtures which induced significant changes in a 13C-HSQC spectrum of the protein were then deconvoluted to find the individual binders.

[2] = system: IL17A/TNF stimulated HeLa cells carrying an LCN2 promoter-driven luciferase reporter; assay: IL17A/TNF stimulated HeLa-LCN2 luciferase reporter cells; assay type: cell-based; details: for IC50: Homo sapiens, HeLa LCN2 luciferase reporter, IL17A and TNF, read-out: IL17A/TNF stimulated cell IC50
Experimental: (§1) The promoter of the IL17 target gene lipocalin 2 (LCN2) inserted into pGL4-luciferase vector (pGL4[luc2P/LCN2/Hygro], obtained from Promega) was used to generate a stable clone in HeLa cells (ATCC) using hygromycin. In response to IL17 stimulation the increase in LCN2-luciferase gene transcription can be monitored using the luciferase reporter assay as described below. The reporter cells (HeLa-LCN2) were cultured in Dulbecco's modified Eagle's medium supplemented with 10% (v/v) fetal bovine serum, 0.2 mg/mL hygromycin, and 1% penicillin and streptomycin. Cells were maintained at 37 °C in a humidified atmosphere of 5% CO2. The assay media contained Dulbecco's modified Eagle's medium supplemented with 0.5% Charcoal-stripped FBS and 1% penicillin and streptomycin. About 7500 cells per well were plated in 40 ul assay media in a 384-well black plate (Grenier, #781,090) for 16 h. Then cells were stimulated with IL17A (10 ng/mL) and TNF (20 ng/mL) for 6 h at 37 °C and 5% CO2. The supernatant was removed and 25 µL of One-Glo reagent (#E6110, Promega) was added to the wells and luminescence was measured using Envision multimode plate reader. Background signal was measured using the same protocol by stimulating cells with TNF (20 ng/mL) in the absence of IL17A. All inhibition experiments were normalized against DMSO control containing no inhibitor. Example raw data are shown in Supplementary Fig. 10B.

IL17A [3] = molecular target: T2, IL17A (Homo sapiens, UniProt Q16552); assay: Compound binding to IL17A via surface plasmon resonance (SPR); details: for Kd: binding to IL17A
T2 construct: Biotinylated Avi-tag IL17A-(24–155) was produced by enzymatic biotinylation; 6His-MBP (N, cleaved yes); made in house; host or cells: Escherichia coli Shuffle T7 express (NEB)
T2 sequence (Q16552 24-155): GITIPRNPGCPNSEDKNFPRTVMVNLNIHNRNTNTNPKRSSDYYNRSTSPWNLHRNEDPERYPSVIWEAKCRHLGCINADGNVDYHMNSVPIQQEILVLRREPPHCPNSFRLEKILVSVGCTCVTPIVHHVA
Experimental: Compounds were assayed via Surface Plasmon Resonance (SPR) using Biacore T200 instrument and Biacore 4000 [Formerly GE Healthcare (now Cytiva Life Sciences)]. […] Sensorgrams were processed (including solvent correction) and analyzed using Biacore T200 and Biacore 4000 evaluation software. The binding curves were fit to determine the equilibrium dissociation constant (KD) and kinetic constants (kon and koff).
Supplemental Figure 2: Measurement for binding of IL17A inhibitors by Surface Plasmon Resonance (SPR).

IL17A-IL17RA-Fc complex = molecular target: T3, IL17A-IL17RA-Fc complex (Homo sapiens, UniProt Q16552); assay: IL17A-IL17RA-Fc AlphaLISA assay; assay type: biochemical
T3 construct: purchased R&D Systems
T3 sequence (Q16552 24-155, one chain of several): as the sequence (Q16552 24-155) above
Experimental: (§2) AlphaLISA technology was used to understand the ability of compounds to inhibit IL17A binding to IL17 receptor (IL17RA). Compounds of interest were diluted in 100% DMSO and plated in a 384 well white proxiplate (Perkin Elmer) using Echo Acoustic Liquid Handler (LabCyte Sunnydale, CA). To the compound plate, 4 µL of biotinylated IL17A (R&D systems) and 2 µL of IL17RA-Fc (R&D Systems) was added, to provide a final concentration of 1 nM of IL17RA-Fc and IL17A, respectively. The assay was carried out in 100 mM Tris, 0.01% Tween-20, 0.1% BSA, pH 8.0. The assay mixture was allowed to incubate at room temperature for 60 min, after which, 2 µL of protein A AlphaLISA acceptor beads (#AL101M, PerkinElmer) was added to a final concentration of 7.5 µg/mL for 60 min. To the plate, 2 µL of streptavidin donor beads (#6,760,002, PerkinElmer) was added to a final concentration of 7.5 µg/mL. The plate was allowed to incubate for one hour at room temperature, then loaded into the Envision multimode plate reader (Perkin Elmer). AlphaLISA TruHits Kits (#AL900D, PerkinElmer) were used to assess potential false positives. All inhibition experiments were normalized against DMSO control containing no inhibitor. Example raw data are shown in Supplementary Fig. 10A.

IL17RA = molecular target: T4, IL17RA (Homo sapiens, UniProt Q96F46); assay: SPR of IL17A WT and truncated IL17A binding to IL17RA; details: IL17A construct binding to IL17RA
T4 construct: purchased Sino Biological
Experimental: (§3) To interrogate IL17A—IL17RA binding and the effect of compound binding to IL17A for interaction with IL17RA, Biotinylated Avi tag IL17RA was immobilized using CAP chip. IL17A WT protein with and without compounds was injected over the immobilized IL17RA surface. The surface was regenerated using mixture of 8 M Guanidine Hydrochloride and 1 M Sodium Hydroxide. To profile both IL17A WT and truncated-IL17A binding to IL17RA, Fc tag IL17RA (Sino Biological) was captured on immobilized anti-Fc (Human Fc from Pierce) surface. IL17A WT (34–155)C129S and Truncated (34–148)C129S was injected at flow rate of 80 µL/min for contact time of 180 s and dissociation was monitored for 1200 s. The surface was regenerated with 2 consecutive injections (60 s and 10 s at 60 µL/min) of 10 mM Glycine, pH 1.5.

[4] = system: T5, IL17A-IL17RA interactions; assay: SPR competition assay: IL17A +/- inhibitor over immobilized IL17RA; assay type: binding; details: IL17A +/- inhibitor injected over immobilized IL17RA
T5 construct: IL17A WT (34–155)C129S and Truncated (34–148)C129S was injected; Trx-6His (N, cleaved yes); made in house; host or cells: Escherichia coli Shuffle T7 express (NEB) for IL17A
Experimental: as §3
Supplemental Figure 6: C-terminal binding site compounds can disrupt IL17A binding to its receptor in SPR competition assay. Biotinylated Avi-tagged IL17RA was captured on CAP chip; IL17A +/- inhibitor samples were injected over immobilized IL17RA . Cmpd 1 was used as the positive control. [picture]

IL17A [5] = molecular target: T2, IL17A; assay: Fluorescence polarization competition assay with FP probe Cmpd 11; assay type: binding; details: for Competition for IL17A with FP probe: probe Cmpd 11
Experimental: Fluorescence polarization (FP) assays were performed in black shallow 384-well micro plates (ProxiPlate – 384 F Plus, PerkinElmer) using Envision multimode plate reader (Perkin-Elmer). Polarization was measured by using an excitation filter of 485 nm and an emission filter of 535 nm. Each well was flashed 50 times, and the average values were used. Briefly, 5 µL of IL17A (20 nM) diluted in the assay buffer (50 mM Tris pH 8.0, 0.001% Tween) was added to compound containing wells and incubated for 60 min. To this, 5 µL of the FP probe (10 nM) was added and the reaction mixture was incubated for 120 min at room temperature prior to measuring FP. All inhibition experiments were normalized against DMSO control containing no inhibitor.

[6] = AlphaLISA TruHits counter screen for false positives; details: AlphaLISA non-specific effects; read-out: TruHits counterscreen IC50
Experimental: as §2

[7] = system: TNF-only stimulated HeLa reporter cells; assay: TNF-only stimulated HeLa-LCN2 luciferase reporter cells; assay type: cell-based; details: Homo sapiens, read-out: TNF-only stimulated cell IC50
Experimental: as §1

IL17A [8] = molecular target: T2, IL17A; assay: Isothermal titration calorimetry with IL17A dimer; assay type: binding; details: reverse titration, 50 mM sodium phosphate pH 7.0; read-out: ITC affinity (KD)
Experimental: Supplemental Figure 7: Isothermal titration calorimetry of Cmpd 10. Theoretical binding of 1 molecule to a IL17A dimer would result in N of 0.5. Observed stoichiometry was 0.7. 200 µM IL17A (dimer) used injected (reverse titration) to 20 µM Cmpd 10 in 50 mM sodium phosphate pH 7.0.

[9] = disruption of IL17A-IL17RA-Fc complex formation, read-out: IL17A/IL17RA-Fc AlphaLISA IC50

Compound: O=C1CC2(CCCC2)CC(=O)NC(Cc2ccc(NC(=O)C(Cc3ccccc3Cl)NC(=O)Cc3cccc(O)c3)cc2)C(=O)NCCOCCOCCN1 (stereo not drawn) [Cmpd 1, reference compound]
- Concentration needed to block cellular signaling ([2]; positive control in cellular assays): ~ 3 µM
- Kd (IL17A [3]): ~0.004 µM
- Binding efficiency index (BEI) (IL17A [3]; from SPR KD and molecular weight): 11–13
- Potency in biochemical assays (IL17A-IL17RA-Fc complex; positive control in biochemical assays): low nM potency

Compound: C/C=C/c1cccc2c(N)n[nH]c12 [Cmpd 4, (E)-7-(prop-1-en-1-yl)-1H-indazol-3-amine]
- Kd (IL17A [3]): > 250 µM

Compound: C-terminal deletion: IL17A construct (aa 34–148) lacking the final C-terminal residues (aa 149–155)
- Interaction with IL17RA by SPR (IL17RA): did not productively interact with IL17RA

Compound: O=C(O)c1cc(NCc2ccccc2OCCOCCOCCOc2ccccc2CNc2cc(C(=O)O)cc(-c3ccnc4ccccc34)c2)cc(-c2ccnc3ccccc23)c1 [Cmpd 10]
- Kd (IL17A [8]): 0.044 µM
- IC50 [2]: 1.3 µM
- IC50 (IL17A [5]; unlabeled compound pre-bound to IL17A before addition of FP probe): 0.107 µM
- Kd (IL17A [3]): 0.043 µM and < 0.1 µM
- IC50 (IL17A-IL17RA-Fc complex; inhibition of IL17A/IL17RA-Fc interactions, read-out: IL17A/IL17RA-Fc IC50): 0.74 µM
- IC50 [7]: > 50 µM

More lines, main results first:

- Kd (IL17A [1]): 12 µM
Compound: c1ccc(CNc2cncc(-c3ccc4[nH]nc(NCCN5CCOCC5)c4c3)c2)cc1 [Cmpd 5, 5-(5-(benzylamino)pyridin-3-yl)-N-(2-morpholinoethyl)-1H-indazol-3-amine]

- Kd (IL17A [3]): ~70 µM and 72 µM
Compound: Clc1ncc(NCc2ccccc2)cc1-c1cccc2ncccc12 [Cmpd 6, N-benzyl-6-chloro-5-(quinolin-5-yl)pyridin-3-amine]

- IC50 [2]: 4.7 µM
- Competition for IL17A with FP probe (IL17A [5]): full competition
- Kd (IL17A [3]): 0.37 µM
- IC50 (IL17A-IL17RA-Fc complex; [9]): 3.6 µM and ~4 µM
- IC50 [7]: ~51 µM
Compound: O=C(COc1ccccc1CNc1cc(C(=O)O)cc(-c2ccnc3ccccc23)c1)NCCNC(=O)COc1ccccc1CNc1cc(C(=O)O)cc(-c2ccnc3ccccc23)c1 [Cmpd 8, 5,5'-((((((ethane-1,2-diylbis(azanediyl))bis(2-oxoethane-2,1-diyl))bis(oxy))-bis(2,1-phenylene))bis(methylene))bis(azanediyl))bis(3-(quinolin-4-yl)benzoic acid)]
- Disruption of IL17A-IL17RA interactions in SPR-based assay [4]: could block IL17A receptor interactions; also recorded: showed disruption of IL17A-IL17RA interactions
- IC50 [6]: ~54 µM

- IC50 [2]: 5.7 µM
- Competition for IL17A with FP probe (IL17A [5]): full competition
- Kd (IL17A [3]): 0.21 µM and 0.209 µM
- IC50 (IL17A-IL17RA-Fc complex; [9]): 1.3 µM
- IC50 [7]: > 70 µM
Compound: O=C(COc1ccccc1CNc1cc(C(=O)O)cc(-c2ccnc3ccccc23)c1)NCCOCCOc1ccccc1CNc1cc(C(=O)O)cc(-c2ccnc3ccccc23)c1 [Cmpd 9, 3-((2-(2-(2-(2-(2-(((3-carboxy-5-(quinolin-4-yl)phenyl)amino)methyl)-phenoxy)acetamido)ethoxy)ethoxy)-benzyl)amino)-5-(quinolin-4-yl)benzoic acid]
- IC50 [6]: ~57 µM
